In US20240366624A1, “METHODS AND COMPOSITIONS FOR TREATING THROMBOTIC DISEASE” (Washington University, priority 2023, published 2024):

Columns and labels:
ERO1α = target: T1, ERO1α (Homo sapiens, UniProt Q96HE7); conditions: from studies; cited from earlier work
T1 sequence (Q96HE7 24-468): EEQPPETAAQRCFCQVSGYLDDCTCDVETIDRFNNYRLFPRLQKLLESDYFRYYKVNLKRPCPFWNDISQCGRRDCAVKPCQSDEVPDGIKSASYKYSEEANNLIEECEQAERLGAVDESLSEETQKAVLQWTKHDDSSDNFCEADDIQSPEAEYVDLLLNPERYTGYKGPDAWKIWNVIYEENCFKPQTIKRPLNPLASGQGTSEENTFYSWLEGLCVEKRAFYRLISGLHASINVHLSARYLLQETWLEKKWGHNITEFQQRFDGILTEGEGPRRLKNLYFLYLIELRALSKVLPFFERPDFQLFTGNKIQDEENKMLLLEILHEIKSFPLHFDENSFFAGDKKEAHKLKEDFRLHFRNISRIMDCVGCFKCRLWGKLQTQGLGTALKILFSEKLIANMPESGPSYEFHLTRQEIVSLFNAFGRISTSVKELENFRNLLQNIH

mouse platelets = experiment: Flow cytometry of P-selectin exposure and αIIbβ3 integrin activation, mouse platelets; assay type: cell-based; conditions: 3 to 10 μM, mouse platelets, thrombin or CRP
Description: FIG. 10(A-E) is an exemplary embodiment of 15E9 not affecting platelet activation and aggregation in accordance with the present disclosure. Mouse platelets were treated with 0.02-0.03 (FIG. 10A P-selectin, FIG. 10B aIIbβ3) or 0.025 U/ml thrombin (FIG. 10C) in the presence of 10 μg/ml mouse IgG2a (IgG2a) or a blocking anti-ERO1α antibody (15E9). Flow cytometry (FIG. 10(A-B)) and aggregation (FIG. 10C) assays were performed. FIG. 10D: Human platelets were treated with 0.025 U/ml thrombin in the presence of mouse IgG2a (mIgG2a) or 10 μg/ml 15E9 and 16B6, followed by measuring aggregation. […] P values determined by unpaired Student's t-test (vs. mIgG1).
FIG. 18(A-R) is an exemplary embodiment of novel small-molecule inhibitors recapitulating the defect in Ero1α (endoplasmic reticulum oxidoreductase 1a)-null platelets in accordance with the present disclosure. […] After incubation with a different concentration of B12-5, the specific interaction between B12-5 and ERO1α was measured by subtracting the nonspecific binding. The KD value was calculated from the Kon and Koff values. […] P values determined by ANOVA and Dunnett test (FIG. 18(B-E), FIG. 18(1-L), and FIG. 18(O-R) [for B12-5]) or Student t test (FIG. 18M, FIG. 18N, and FIG. 18(O-R) [for BAPTA (1,2-bis(o-aminophenoxy)ethane-N,N,N′,N′-tetraacetic acid)]). […]

Row | SMILES | IC50 (ERO1α) [µM] | P-selectin exposure and αIIbβ3 activation (mouse platelets)
1 | O=C(O)c1cc(N2N=C(C(F)(F)F)/C(=C/c3ccc(-c4ccccc4)o3)C2=O)ccc1Cl [EN460] | 1.9 | 
2 | O=C(CSc1nc(O)cc(O)n1)N1c2ccccc2Sc2ccccc21 [B12-5] |  | significantly reduced
